Data reported in patent EP4786487A1, “PEPTIDE” (Peptidream Inc, priority 2023, dated 2025).
Starred links: 1 amine or outer side, 2 acyl side, 3 side chain; linkers in the order of their positions; H or OH if unused. Positions of bridges follow the written chain, without caps; N, C: chain ends. Non-standard residues stand in square brackets, D forms with d. Residues, ends and D or L forms follow the SMILES beside them. *: point of attachment. Phe(4-(4-pyridyl)) = N[C@@H](Cc1ccc(-c2ccncc2)cc1)C(=O)O; Phe(3-OCH2COOH) = N[C@@H](Cc1cccc(OCC(=O)O)c1)C(=O)O; Phe(4-COOH) = N[C@@H](Cc1ccc(C(=O)O)cc1)C(=O)O; Trp(7-aza) = N[C@@H](Cc1c[nH]c2ncccc12)C(=O)O; Bip = N[C@@H](Cc1ccc(-c2ccccc2)cc1)C(=O)O; Gly(decyl) = CCCCCCCCCC[C@H](N)C(=O)O; Gly(N(CH2)3COOH) = O=C(O)CCCNCC(=O)O; X1 = CCCCCCC[C@H](N[*:1])C(=O)[*:2]; NMeF = CN[C@@H](Cc1ccccc1)C(=O)O; Carboxymethyl = O=C(O)C*; NMeA = CN[C@@H](C)C(=O)O; Sar = CNCC(=O)O

Tests used:
Type in all cases: cell-based
GDF-11 = molecular target: T1, GDF-11 (Homo sapiens, UniProt O95390); assay: Reporter gene assay for myostatin signaling in HepG2 cell line, Evaluation Procedure (1), GDF-11 inhibition; settings: Method A: GDF-11 10 ng/mL; read-out: IC50 (Luciferase) GDF-11 HepG2
T1 construct: purchased R&D systems 1958-GD-G8/CF
T1 sequence (O95390 299-407): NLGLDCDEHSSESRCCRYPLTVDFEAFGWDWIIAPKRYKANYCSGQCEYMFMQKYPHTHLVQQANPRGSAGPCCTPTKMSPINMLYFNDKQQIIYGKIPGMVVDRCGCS
Outline: (§1)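 HepG2 cells transfected with pGL3(CAGA)12-luciferase reporter, serum-starved in 0.1% BSA medium, then stimulated with myostatin or GDF-11 plus 4-fold peptide dilutions (0.006–100 nmol/L for myostatin, 0.12–2000 nmol/L for GDF-11) for 20–24 h at 37 °C. Luminescence read with One-Glo; IC50 calculated.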

Myostatin [1] = assay: Reporter gene assay for myostatin signaling in HepG2 cell line, Evaluation Procedure (1), myostatin inhibition; settings: Method A; GDF-11 IC50 versus Myostatin IC50
Outline: as §1

Myostatin [2] = molecular target: T2, Myostatin (Homo sapiens, UniProt O14793); assay: as above; settings: Method A: Myostatin 10 ng/mL; read-out: IC50 (Luciferase) Myostatin HepG2
T2 construct: active myostatin (also called mature myostatin) is a homodimer consisting of two C-terminal growth factor domains; purchased R&D systems 788-G8/CF
T2 sequence (O14793 267-375): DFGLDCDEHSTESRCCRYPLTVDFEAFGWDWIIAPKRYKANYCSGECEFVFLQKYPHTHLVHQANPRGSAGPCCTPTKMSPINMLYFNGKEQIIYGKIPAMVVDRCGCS
Outline: as §1

IC50 (GDF-11)	IC50 (Myostatin [2])	Compound	Selectivity (Myostatin [1])
214 nM	4.5 nM	CCCCCCC[C@@H]1NC(=O)[C@H](Cc2ccccc2)N(C)C(=O)[C@H](CCCNC(=N)N)NC(=O)[C@H](Cc2ccc(C(=O)O)cc2)NC(=O)[C@H](Cc2ccc(O)cc2)NC(=O)CN(C)C(=O)[C@H]([C@@H](C)CC)NC(=O)[C@H](Cc2ccccc2)N(C)C(=O)[C@H](Cc2ccc(O)cc2)NC(=O)[C@H](Cc2c[nH]c3ccccc23)NC(=O)[C@H](C)NC(=O)CN(CCCC(=O)O)C(=O)CSC[C@H](C(=O)O)NC(=O)[C@H](Cc2ccccc2)N(C)C(=O)[C@H](C)N(C)C1=O [Myostatin_99_v167] ({CH2CO}-[Gly(N(CH2)3COOH)]AWY[NMeF]I[Sar]Y[Phe(4-COOH)]R[NMeF][X1][NMeA][NMeF][dC]-OH; thioether N-15)	48
90 nM	0.7 nM	CCCCCCCCCC[C@@H]1NC(=O)[C@H](Cc2ccccc2)N(C)C(=O)[C@H](CCCNC(=N)N)NC(=O)[C@H](Cc2ccc(C(=O)O)cc2)NC(=O)[C@H](Cc2cccc(OCC(=O)O)c2)NC(=O)[C@H](C)N(C)C(=O)[C@H]([C@@H](C)CC)NC(=O)[C@H](Cc2ccccc2)N(C)C(=O)[C@H](Cc2ccc(O)cc2)NC(=O)[C@H](Cc2c[nH]c3ccccc23)NC(=O)[C@H](C)NC(=O)CN(CCCC(=O)O)C(=O)CSC[C@H](C(=O)O)NC(=O)[C@H](Cc2ccccc2)N(C)C(=O)[C@H](C)N(C)C1=O [Myostatin_99_v198] ({CH2CO}-[Gly(N(CH2)3COOH)]AWY[NMeF]I[NMeA][Phe(3-OCH2COOH)][Phe(4-COOH)]R[NMeF][Gly(decyl)][NMeA][NMeF][dC]-OH; thioether N-15)	123
1000 nM	3.6 nM	CCCCCCC[C@@H]1NC(=O)[C@H](Cc2ccccc2)N(C)C(=O)[C@H](CCCNC(=N)N)NC(=O)[C@H](Cc2ccc(C(=O)O)cc2)NC(=O)[C@H](Cc2cccc(OCC(=O)O)c2)NC(=O)[C@H](C)N(C)C(=O)[C@H]([C@@H](C)CC)NC(=O)[C@H](Cc2ccccc2)N(C)C(=O)[C@H](Cc2ccc(O)cc2)NC(=O)[C@H](Cc2c[nH]c3ccccc23)NC(=O)[C@H](CO)NC(=O)CN(CCCC(=O)O)C(=O)CSC[C@H](C(=O)O)NC(=O)[C@H](Cc2ccccc2)N(C)C(=O)[C@H](C)N(C)C1=O [Myostatin_99_v163] ({CH2CO}-[Gly(N(CH2)3COOH)]SWY[NMeF]I[NMeA][Phe(3-OCH2COOH)][Phe(4-COOH)]R[NMeF][X1][NMeA][NMeF][dC]-OH; thioether N-15)	279
1240 nM	14 nM	CCCCCCC[C@@H]1NC(=O)[C@H](Cc2ccccc2)N(C)C(=O)[C@H](CCCNC(=N)N)NC(=O)[C@H](Cc2ccc(C(=O)O)cc2)NC(=O)[C@H](Cc2cccc(OCC(=O)O)c2)NC(=O)CN(C)C(=O)[C@H]([C@@H](C)CC)NC(=O)[C@H](Cc2ccccc2)N(C)C(=O)[C@H](Cc2ccc(O)cc2)NC(=O)[C@H](Cc2c[nH]c3ccccc23)NC(=O)[C@H](C)NC(=O)CN(CCCC(=O)O)C(=O)CSC[C@H](C(=O)O)NC(=O)[C@H](Cc2ccccc2)N(C)C(=O)[C@H](C)N(C)C1=O [Myostatin_99_v165] ({CH2CO}-[Gly(N(CH2)3COOH)]AWY[NMeF]I[Sar][Phe(3-OCH2COOH)][Phe(4-COOH)]R[NMeF][X1][NMeA][NMeF][dC]-OH; thioether N-15)	89
377 nM	17.3 nM	CC[C@H](C)[C@@H]1NC(=O)[C@H](Cc2ccccc2)N(C)C(=O)[C@H](Cc2ccc(O)cc2)NC(=O)[C@H](Cc2ccc(-c3ccccc3)cc2)NC(=O)[C@H](C)NC(=O)CN(CCCC(=O)O)C(=O)CSC[C@H](C(=O)O)NC(=O)[C@H](Cc2ccccc2)N(C)C(=O)[C@H](C)N(C)C(=O)[C@H](CC(C)C)NC(=O)[C@H](Cc2ccccc2)N(C)C(=O)[C@H](CCCNC(=N)N)NC(=O)[C@H](Cc2ccc(C(=O)O)cc2)NC(=O)[C@H](Cc2ccc(O)cc2)NC(=O)CN(C)C1=O [Myostatin_99_v176] ({CH2CO}-[Gly(N(CH2)3COOH)]A[Bip]Y[NMeF]I[Sar]Y[Phe(4-COOH)]R[NMeF]L[NMeA][NMeF][dC]-OH; thioether N-15)	22

Second part, the molecule before the results:

Compound	IC50 (GDF-11)	IC50 (Myostatin [2])	Selectivity (Myostatin [1])
CC[C@H](C)[C@@H]1NC(=O)[C@H](Cc2ccccc2)N(C)C(=O)[C@H](Cc2ccc(O)cc2)NC(=O)[C@H](Cc2ccc(-c3ccncc3)cc2)NC(=O)CNC(=O)CN(CCCC(=O)O)C(=O)CSC[C@H](C(=O)O)NC(=O)[C@H](Cc2ccccc2)N(C)C(=O)[C@H](C)N(C)C(=O)[C@H](CC(C)C)NC(=O)[C@H](Cc2ccccc2)N(C)C(=O)[C@H](CCCNC(=N)N)NC(=O)[C@H](Cc2ccc(OCC(=O)O)cc2)NC(=O)[C@H](Cc2cccc(OCC(=O)O)c2)NC(=O)[C@H](C)N(C)C1=O [Myostatin_99_v91] ({CH2CO}-[Gly(N(CH2)3COOH)]G[Phe(4-(4-pyridyl))]Y[NMeF]I[NMeA][Phe(3-OCH2COOH)]Y(Carboxymethyl)R[NMeF]L[NMeA][NMeF][dC]-OH; thioether N-15)	7380 nM	72.3 nM	102
CC[C@H](C)[C@@H]1NC(=O)[C@H](Cc2ccccc2)N(C)C(=O)[C@H](Cc2ccc(O)cc2)NC(=O)[C@H](Cc2ccc(-c3ccccc3)cc2)NC(=O)[C@H](C)NC(=O)[C@H](C)NC(=O)CSC[C@H](C(=O)O)NC(=O)[C@H](Cc2ccccc2)N(C)C(=O)[C@H](C)N(C)C(=O)[C@H](CC(C)C)NC(=O)[C@H](Cc2ccccc2)N(C)C(=O)[C@H](CCCNC(=N)N)NC(=O)[C@H](Cc2ccc(C(=O)O)cc2)NC(=O)[C@H](Cc2ccc(O)cc2)NC(=O)CN(C)C1=O [Myostatin_99_v189] ({CH2CO}-AA[Bip]Y[NMeF]I[Sar]Y[Phe(4-COOH)]R[NMeF]L[NMeA][NMeF][dC]-OH; thioether N-15)	234 nM	6.9 nM	34
CCCCCCC[C@@H]1NC(=O)[C@H](Cc2ccccc2)N(C)C(=O)[C@H](CCCNC(=N)N)NC(=O)[C@H](Cc2ccc(C(=O)O)cc2)NC(=O)[C@H](Cc2cccc(OCC(=O)O)c2)NC(=O)[C@H](C)N(C)C(=O)[C@H]([C@@H](C)CC)NC(=O)[C@H](Cc2ccccc2)N(C)C(=O)[C@H](Cc2ccc(O)cc2)NC(=O)[C@H](Cc2c[nH]c3ccccc23)NC(=O)[C@H](CO)NC(=O)[C@H](C)NC(=O)CSC[C@H](C(=O)O)NC(=O)[C@H](Cc2ccccc2)N(C)C(=O)[C@H](C)N(C)C1=O [Myostatin_99_v197] ({CH2CO}-ASWY[NMeF]I[NMeA][Phe(3-OCH2COOH)][Phe(4-COOH)]R[NMeF][X1][NMeA][NMeF][dC]-OH; thioether N-15)	438 nM	3.4 nM	129
CCCCCCC[C@@H]1NC(=O)[C@H](Cc2ccccc2)N(C)C(=O)[C@H](CCCNC(=N)N)NC(=O)[C@H](Cc2ccc(C(=O)O)cc2)NC(=O)[C@H](Cc2cccc(OCC(=O)O)c2)NC(=O)CN(C)C(=O)[C@H]([C@@H](C)CC)NC(=O)[C@H](Cc2ccccc2)N(C)C(=O)[C@H](Cc2ccc(O)cc2)NC(=O)[C@H](Cc2c[nH]c3ncccc23)NC(=O)[C@H](CO)NC(=O)[C@H](C)NC(=O)CSC[C@H](C(=O)O)NC(=O)[C@H](Cc2ccccc2)N(C)C(=O)[C@H](C)N(C)C1=O [Myostatin_99_v160] ({CH2CO}-AS[Trp(7-aza)]Y[NMeF]I[Sar][Phe(3-OCH2COOH)][Phe(4-COOH)]R[NMeF][X1][NMeA][NMeF][dC]-OH; thioether N-15)	350 nM	3.2 nM	109
